According to patent publication US10774064B2 (Cadent Therapeutics, Inc., priority 2016, dated 2020):

The compounds below were run against T1, small-conductance Ca2+-activated K+ channels (SK channels, subtype 2) (Homo sapiens, UniProt Q9H2S1) (assay: whole-cell patch-clamp of ionic current through SK2 channels in HEK293 cells (SC100)). Details: concentration that increases the basal current by 100%; HEK293 cells expressing SK2 channels.
T1 construct: expressed in transfected cells; host or cells: HEK293
Format: cell-based
Outline: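 Whole-cell patch-clamp recording of current in HEK293 cells expressing SK2 channels. SC100 is the compound concentration that increases basal current by 100%.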

Structure (SMILES)	SC100
Cc1cc(NC2CCC(F)(F)CC2)nc(-n2cc(C)c(CF)n2)n1 [Compound 258, N-(4,4-difluorocyclohexyl)-2-(3-(fluoromethyl)-4-methyl-1H-pyrazol-1-yl)-6-methylpyrimidin-4-amine]	++ (++ means 200 nM-1000 nM)
Cc1cn(-c2nc(NC3CCC(F)(F)CC3)cc(OC3COC3)n2)nc1CF [Compound 304, N-(4,4-difluorocyclohexyl)-2-(3-(fluoromethyl)-4-methyl-1H-pyrazol-1-yl)-6-(oxetan-3-yloxy)pyrimidin-4-amine]	++ (++ means 200 nM-1000 nM)
CC(=O)N1CCN(c2cc(N(C)C3CCC(F)(F)CC3)nc(-n3nc(C)cc3C)n2)CC1 [Compound 132, 1-(4-(6-((4,4-difluorocyclohexyl)(methyl)amino)-2-(3,5-dimethyl-1H-pyrazol-1-yl)pyrimidin-4-yl)piperazin-1-yl)ethan-1-one]	++ (++ means 200 nM-1000 nM)
CC(=O)NCc1cc(NC2CCC(F)(F)CC2)nc(-n2ccc(C(F)F)n2)c1 [Compound 301, N-((2-((4,4-difluorocyclohexyl)amino)-6-(3-(difluoromethyl)-1H-pyrazol-1-yl)pyridin-4-yl)methyl)acetamide]	++ (++ means 200 nM-1000 nM)
Cc1cn(-c2nc(NC3CCC(F)(F)CC3)cc(OC3CN(C(=O)C(C)(C)C)C3)n2)nc1C(F)F [Compound 317, 1-(3-((6-((4,4-difluorocyclohexyl)amino)-2-(3-(difluoromethyl)-4-methyl-1H-pyrazol-1-yl)pyrimidin-4-yl)oxy)azetidin-1-yl)-2,2-dimethylpropan-1-one]	+++ (+++ means <200 nM)

Same assay, conditions: whole-cell patch-clamp, HEK293 cells expressing SK2 channels; concentration that increases the basal current by 100%

Structure (SMILES)	SC100 (μM)
COc1cc(NCCCC(C)(F)F)nc(-c2nc(C)cs2)n1 [IN11107-023-P1]	+ (+ means >1 uM)
COc1cc(NCCC(C)(F)F)nc(-c2nc(C)cs2)n1 [IN11107-021-P1]	+ (+ means >1 uM)
Cc1cc(C)n(-c2cc(Cc3ncco3)cc(NC3CCC(F)(F)CC3)n2)n1 [NSSy5645, N-(4,4-difluorocyclohexyl)-6-(3,5-dimethyl-1H-pyrazol-1-yl)-4-(oxazol-2-ylmethyl)pyridin-2-amine]	++ (++ means 200 nM-1000 nM)
COc1cc(C)n(-c2nc(NC3CCC(F)(F)CC3)cc(N3CCOCC3)n2)n1 [IN11217-088-P1]	+ (+ means >1 uM)
Cc1ccn(-c2nc(C(C)O)cc(N(C)C3CCCCC3)n2)n1 (centres unmarked) [IN10880-064-P1]	+ (+ means >1 uM)
FC1(F)CCC(Nc2cc(N3CCOCC3)nc(-c3nccs3)n2)CC1 [NSSy6152]	+ (+ means >1 uM)
Cc1cc(NC2CCC(F)(F)CC2)nc(Cn2nccc2C)n1 [IN11273-015-P2, N-(4,4-difluorocyclohexyl)-6-methyl-2-((5-methyl-1H-pyrazol-1-yl)methyl)pyrimidin-4-amine]	+ (+ means >1 uM)
Cc1ccn(-c2nc(NC3CC=CCC3)cc(N3CCOCC3)n2)n1 (centres unmarked) [NSSy5663]	+ (+ means >1 uM)
COC(=O)N1CC(Oc2cc(NC3CCC(F)(F)CC3)nc(-c3nc(CO)cs3)n2)C1 [NSSy6049, methyl 3-((6-((4,4-difluorocyclohexyl)amino)-2-(4-(hydroxymethyl)thiazol-2-yl)pyrimidin-4-yl)oxy)azetidine-1-carboxylate]	+ (+ means >1 uM)
COCc1cc(-n2nc(C)cc2C)nc(NC2CCC(F)(F)CC2)n1 [NSSy6724]	++ (++ means 200 nM-1000 nM)
COC(=O)NCCOc1c(NC2CCC(F)(F)CC2)nc(-c2nc(C)cs2)nc1OC [IN11125-052-P1, methyl (2-((4-((4,4-difluorocyclohexyl)amino)-6-methoxy-2-(4-methylthiazol-2-yl)pyrimidin-5-yl)oxy)ethyl)carbamate]	+ (+ means >1 uM)
Cc1cc(C)n(-c2nc(OC3CCC(F)(F)CC3)cc(N3CCOCC3)n2)n1 [IN10991-021-P1, 4-(6-((4,4-difluorocyclohexyl)oxy)-2-(3,5-dimethyl-1H-pyrazol-1-yl)pyrimidin-4-yl)morpholine]	+ (+ means >1 uM)
